From publication PMC5558795 (Antiviral research, 2017)
pIC50: −log10 of the molar value. “Also recorded” adds a separate entry of the source.

How the values were obtained:
[1] = target: Furin (Homo sapiens, UniProt P09958); assay: Fluorescent peptide; assay type: biochemical; conditions: read-out: In vitro IC50, Furin; 20 nM enzyme, 20 μM Pyr-RTKR-AMC
[2] = system: Fetal human NPCs; assay type: cell-based
[3] = system: ZIKV (Asian strain, FSS13025); assay: ZIKV infection of human fetal neural progenitor cells; assay type: cell-based, Zika virus; conditions: compound up to 100 μM; for Inhibition of ZIKV infection of hfNPCs (in words): MOI 0.1, 4 days; for Cytotoxicity in hfNPCs (in words): Fig. 7A
[4] = design: species or system mice; conditions: mouse, in vivo, ip, 10 mg/kg
[5] = target: ZIKV NS2B-NS3pro (Zika virus, UniProt A0A024B7W1); assay: Fluorescent peptide; assay type: biochemical; conditions: read-out: IC50, ZIKV cleavage activity; Fig. 4A

Chain of Furin (P09958 108-794): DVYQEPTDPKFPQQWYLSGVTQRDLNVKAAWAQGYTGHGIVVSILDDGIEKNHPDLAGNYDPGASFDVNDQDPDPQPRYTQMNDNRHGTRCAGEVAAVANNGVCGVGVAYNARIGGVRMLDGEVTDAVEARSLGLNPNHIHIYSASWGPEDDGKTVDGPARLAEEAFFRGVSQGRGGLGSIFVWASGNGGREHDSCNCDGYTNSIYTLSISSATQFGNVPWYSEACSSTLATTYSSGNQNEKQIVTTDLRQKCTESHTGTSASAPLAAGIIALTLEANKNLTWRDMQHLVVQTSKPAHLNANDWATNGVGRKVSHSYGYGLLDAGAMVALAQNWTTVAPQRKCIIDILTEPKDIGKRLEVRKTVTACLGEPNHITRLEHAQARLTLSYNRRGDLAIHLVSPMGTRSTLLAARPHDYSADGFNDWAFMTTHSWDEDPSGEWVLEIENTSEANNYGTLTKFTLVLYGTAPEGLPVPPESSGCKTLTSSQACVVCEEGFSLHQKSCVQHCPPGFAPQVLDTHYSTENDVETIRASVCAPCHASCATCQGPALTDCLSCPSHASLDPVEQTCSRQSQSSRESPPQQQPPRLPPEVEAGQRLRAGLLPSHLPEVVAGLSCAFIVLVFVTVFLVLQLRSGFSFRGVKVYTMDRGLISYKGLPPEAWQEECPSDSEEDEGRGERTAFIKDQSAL

Compound | pIC50 [1] | Cytotoxicity (TC50) [2] [µM] | Inhibition of ZIKV infection of hfNPCs (in words) [3] | Cytotoxicity in hfNPCs (in words) [3] | Plasma half-life [4] | pIC50 [5]
Nc1cc(N)c(N=Nc2ccc(S(=O)(=O)Nc3nccs3)cc2)cc1N=Nc1ccc(S(=O)(=O)Nc2nccs2)cc1 [NSC86314] | < 4.00 | 212.5 | little or no inhibition | more cytotoxic |  | 
CC(=O)C(N=Nc1ccc(S(=O)(=O)Nc2ccccn2)cc1)C(=O)Nc1ccc(Cl)cc1 (stereo not drawn) [NSC134189] | < 4.00 | 132.3 |  |  |  | 
Clc1nc2n[nH]nc2nc1Cl [NSC157058] | < 4.00 | 257.4 |  | without demonstrating significant cytotoxicity; also recorded: without significant cellular toxicity | ~ 20 min | 
Clc1ccc(-c2nn3c(COc4cc(Cl)c(OCc5nnc6sc(-c7ccc(Cl)cc7)nn56)cc4Cl)nnc3s2)cc1 [NSC716897] | < 4.00 | 178.4 |  |  |  | 
Clc1cc(OCc2nnc3sc(Cc4ccccc4)nn23)c(Cl)cc1OCc1nnc2sc(Cc3ccccc3)nn12 [NSC716898] | < 4.00 | 235.8 |  |  |  | 
Clc1ccc(-c2nn3c(COc4cccc(OCc5nnc6sc(-c7ccc(Cl)cc7)nn56)c4)nnc3s2)cc1 [NSC716903] | < 4.00 | 127.8 | little or no inhibition | more cytotoxic |  | 
Fc1cc(C2=Nn3c(COc4ccc(Cl)cc4Cl)nnc3S/C2=C\c2ccc(-c3ccc(Cl)cc3)o2)c(Cl)cc1Cl [NSC719147] | < 4.00 | 160.3 |  |  |  | 
aprotinin |  |  |  |  |  | ~7.15
